Assay [1] concerns the target T1, human cholecystokinin-1 receptor (CCK-1R) (Homo sapiens, UniProt P32238).
T1 construct: host or cells: 1321-N1 cells
T1 sequence (P32238 1-428): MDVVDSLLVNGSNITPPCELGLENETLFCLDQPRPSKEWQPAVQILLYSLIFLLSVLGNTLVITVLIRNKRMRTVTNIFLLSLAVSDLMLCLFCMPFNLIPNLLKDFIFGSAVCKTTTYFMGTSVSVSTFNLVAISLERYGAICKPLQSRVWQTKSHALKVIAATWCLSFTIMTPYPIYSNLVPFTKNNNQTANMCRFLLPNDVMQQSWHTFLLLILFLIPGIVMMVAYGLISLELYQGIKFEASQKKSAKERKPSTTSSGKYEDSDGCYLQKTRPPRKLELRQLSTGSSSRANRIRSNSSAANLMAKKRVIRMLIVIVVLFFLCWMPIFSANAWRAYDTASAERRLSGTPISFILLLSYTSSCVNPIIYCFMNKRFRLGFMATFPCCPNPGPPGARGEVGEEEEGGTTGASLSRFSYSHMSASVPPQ
The assay can be described thus: In vitro receptor binding to CCK-1R, SPA displacement of [125I]-CCK-8s from plasma membranes. Here is the method:
(§1) The in vitro binding affinity is a measure of the strength of attraction between a receptor and its ligand.
(§2) Displacement of radio ligand was measured as reduction in light emission from SPA beads.
(§3) The cells used in these assays were 1321-N1 cells stably expressing the CCK-1R or the CCK-2R (Perkin Elmer product numbers ES-530-A and ES-531-A, respectively see www.perkinelmer.com/Catalog/Product/ID/ES-530-A or -ES-531-A, respectively).
(§4) The cells were cultured in an incubator (95% RH (relative humidity), 5% (of standard atmospheric pressure) CO2, 37° C.) in cell culture medium (DMEM (Lonza catalogue BE-12-604F/U1), with 10% (v/v) Foetal Calf Serum (FCS, Gibco catalogue 16140-071), 1% (w/w) Sodium pyruvate (Gibco catalogue 11360-039), 500 μg/ml Geneticin® (G418) (Gibco catalogue 10131-027), 25 μg/ml Zeocin™ (Invitrogen catalogue R250-05), 1% (w/w) Pen/Strep (Gibco catalogue 15140-122)).
(§5) Plasma membranes were prepared by Evotec AG Hamburg by use of the ParrBomb (#4635, Parr Instrument Company). Cells were lysed with a lysis buffer (50 mM Tris, 2.5 mM EDTA, pH7) with added protease inhibitors (Complete Proteaseinhibitors EDTA-free (#05056489001, Roche), 1 tablet per 50 mL lysis buffer). The membrane fraction was separated by centrifugation. First, the cell lysate was centrifuged at 1000×g for 10 minutes at 4° C. The pellet was discarded and the supernatant was then centrifuged at 100.000×g for 30 minutes at 4° C. The supernatant was discarded and the pellet was re-suspended in 1 ml/5×10^8 cells ice cold membrane buffer (50 mM Tris, 320 mM Sucrose and Complete Proteaseinhibitors EDTA-free (#05056489001, Roche); pH7.4) and homogenised with dounce homogeniser. The protein concentration was determined using the Pierce™ BCA Protein Assay Kit according to kit manual, and the membrane preparation was adjust to the desired protein concentration with membrane buffer and aliquoted into pre-cooled tubes, snap-frozen in liquid nitrogen, and stored at −80° C.
(§6) CCK receptor binding assays were performed in 96-well Optiplates (Cat #6005290, PerkinElmer, Waltham, Mass., USA) in a total volume of 200 μl per well. CCK derivatives in 80% DMSO stock solutions of 800 μM were serially diluted […] in assay buffer (50 mM Tris/HCl, 4.5 mM MgCl2, […], 0.02% Tween 20, 0.25% ovalbumin, 0.1% pluronic F-68, pH 7.4) to final assay concentrations ranging from 10^−5 M (ten μM) to 10^−12 M (one pM).
(§7) Fifty μl of reference or test compounds were added to the Optiplates (using technical duplicates, i.e. two wells of each sample, one data point being the average of two wells), followed by addition of 150 μl of the mixture of SPA bead, radio ligand, and plasma membrane. The plates were sealed and incubated in the dark at +22° C. for 2 hours on a IKA MTS plate shaker (IKA-Werke D-79219 Staufen) set at 300 rpm and thereafter centrifuged at 1500 rpm for 10 minutes in a Heraeus Multifuge 3s centrifuge. SPA bead light emission was measured in a TopCount NXT (PerkinElmer) for 2 min/well after a delay of 60 min.
(§8) As a measure of compound affinity, calculations were performed in order to determine the half maximal inhibitory concentration (the IC50 value).
(§9) The data from the TopCounter were given as counts per minute (CPM). The CPM was plotted as a function of the concentration of compound. Dose-response curves were obtained, and IC50 values were calculated, by a nonlinear three-parameter logistic equation (log(agonist) vs response) with hillslope=−1, and shared top and bottom using the software programme GraphPad Prism v 6.0 (Graph Pad software, La Jolla, Calif., USA). The highest dose tested was 10^−5 M (1×10^7 pM).
(§10) The preference of a specific compound for the CCK-1 receptor, or the CCK-1R selectivity, may be defined as IC50 (CCK-2R)/IC50 (CCK-1R).
(§11) A minimum of three biological replicates was measured for each test compound on separate assay plates.

The target of assay [2] is T2, human cholecystokinin-2 receptor (CCK-2R) (Homo sapiens, UniProt P32239).
T2 construct: host or cells: 1321-N1 cells (plasma membranes prepared by Evotec AG Hamburg)
T2 sequence (P32239 1-447): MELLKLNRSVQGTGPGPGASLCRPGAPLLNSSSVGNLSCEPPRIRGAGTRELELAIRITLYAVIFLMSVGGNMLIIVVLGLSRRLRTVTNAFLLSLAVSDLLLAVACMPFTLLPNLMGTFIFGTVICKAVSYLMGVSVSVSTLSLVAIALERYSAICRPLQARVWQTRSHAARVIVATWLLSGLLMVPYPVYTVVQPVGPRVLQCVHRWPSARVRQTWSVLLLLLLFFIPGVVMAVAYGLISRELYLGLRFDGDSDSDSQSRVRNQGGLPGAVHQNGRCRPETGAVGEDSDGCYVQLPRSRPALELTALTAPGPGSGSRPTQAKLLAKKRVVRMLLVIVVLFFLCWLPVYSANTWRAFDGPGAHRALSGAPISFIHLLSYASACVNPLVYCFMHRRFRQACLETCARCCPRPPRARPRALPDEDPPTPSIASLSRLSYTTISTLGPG
The assay can be described thus: In vitro receptor binding to CCK-2R, SPA displacement of [125I]-CCK-8s from plasma membranes. The protocol:
as §1, §2, §3, §4, §5, §6, §7, §8, §9, §10, §11

Assay [3] addresses T2, human cholecystokinin-2 receptor (CCK-2R). Put plainly: In vitro potency on CCK-2R, whole cell functional assay (IP1 accumulation, IP-One HTRF). The assay is classed as cell-based.
[4] abbreviates: displacement of [125I]-CCK-8s, plasma membranes of 1321-N1 cells expressing CCK-1R, read-out: IC50 (CCK-1R).
Where [5] appears, read: displacement of [125I]-CCK-8s, plasma membranes of 1321-N1 cells expressing CCK-2R, highest dose tested 1×10^7 pM, read-out: IC50 (CCK-2R).

The values that follow come from patent US20170008928A1, “NOVEL PEPTIDES AND PEPTIDE DERIVATIVES AND USES THEREOF” (Novo Nordisk A/S, priority 2015, published 2017).

Read-outs that look alike come from different tables or passages of the source. Starred links: 1 amine or outer side, 2 acyl side, 3 side chain; linkers in the order of their positions; H or OH if unused. Non-standard residues stand in square brackets, D forms with d. Residues, ends and D or L forms follow the SMILES beside them. *: point of attachment. Phe(4-CH2SO3H) = N[C@@H](Cc1ccc(CS(=O)(=O)O)cc1)C(=O)O; sY = N[C@@H](Cc1ccc(OS(=O)(=O)O)cc1)C(=O)O; C18 diacid = O=C(O)CCCCCCCCCCCCCCCCC(=O)*; γGlu = O=C(O)[C@H](CCC(=O)[*:2])N[*:1]; 2Nal = N[C@@H](Cc1ccc2ccccc2c1)C(=O)O; NMeF = CN[C@@H](Cc1ccccc1)C(=O)O; dNMeD = CN[C@H](CC(=O)O)C(=O)O; Nle = CCCC[C@H](N)C(=O)O; AEEA = NCCOCCOCC(=O)O

`CC[C@H](C)[C@H](NC(=O)[C@H](Cc1c[nH]c2ccccc12)NC(=O)CNC(=O)[C@H](CC(C)C)NC(=O)[C@H](Cc1ccc(OS(=O)(=O)O)cc1)NC(=O)[C@H](CC(=O)O)NC(=O)COCCOCCNC(=O)COCCOCCNC(=O)CC[C@H](NC(=O)CCCCCCCCCCCCCCCCC(=O)O)C(=O)O)C(=O)N(C)[C@H](CC(=O)O)C(=O)N(C)[C@@H](Cc1ccccc1)C(N)=O` [Example 10, 2-[2-[2-[[2-[2-[2-[[(4S)-4-Carboxy-4-(17-carboxyheptadecanoylamino)butanoyl]amino]ethoxy]ethoxy]acetyl]amino]ethoxy]ethoxy]acetyl-Asp-sTyr-Leu-Gly-Trp-Ile-DMeAsp-MePhe-amide] ({C18 diacid-γGlu-AEEA-AEEA}-D[sY]LGWI[dNMeD][NMeF]-NH2): the IC50 is 0.1 nM in assay [1] and 2300 nM in assay [2].

For the compound `CC(C)C[C@H](NC(=O)[C@H](Cc1ccc(OS(=O)(=O)O)cc1)NC(=O)[C@H](CC(=O)O)NC(=O)COCCOCCNC(=O)COCCOCCNC(=O)CC[C@H](NC(=O)CCCCCCCCCCCCCCCCC(=O)O)C(=O)O)C(=O)NCC(=O)N[C@@H](Cc1c[nH]c2ccccc12)C(=O)N[C@@H](CCC(N)=O)C(=O)N(C)[C@H](CC(=O)O)C(=O)N(C)[C@@H](Cc1ccccc1)C(N)=O` [Example 11, 2-[2-[2-[[2-[2-[2-[[(4S)-4-Carboxy-4-(17-carboxyheptadecanoylamino)butanoyl]amino]ethoxy]ethoxy]acetyl]amino]ethoxy]ethoxy]acetyl-Asp-sTyr-Leu-Gly-Trp-Gln-DMeAsp-MePhe-amide] ({C18 diacid-γGlu-AEEA-AEEA}-D[sY]LGWQ[dNMeD][NMeF]-NH2), the EC50 in assay [3] was greater than 1000 nM. For the same compound, the IC50 in assay [1] was 0.084 nM; in assay [2], greater than 10000 nM.

As to `CCCC[C@H](NC(=O)[C@H](Cc1ccc(CS(=O)(=O)O)cc1)NC(=O)[C@@H](CC(=O)O)NC(=O)COCCOCCNC(=O)COCCOCCNC(=O)CC[C@H](NC(=O)CCCCCCCCCCCCCCCCC(=O)O)C(=O)O)C(=O)NCC(=O)N[C@@H](Cc1c[nH]c2ccccc12)C(=O)N[C@@H](CCCC)C(=O)N(C)[C@H](CC(=O)O)C(=O)N(C)[C@@H](Cc1ccccc1)C(N)=O` [Example 25, 2-[2-[2-[[2-[2-[2-[[(4S)-4-Carboxy-4-(17-carboxyheptadecanoylamino)butanoyl]amino]ethoxy]ethoxy]acetyl]amino]ethoxy]ethoxy]acetyl-DAsp-Phe(4-sulfomethyl)-Nle-Gly-Trp-Nle-DMeAsp-MePhe-amide] ({C18 diacid-γGlu-AEEA-AEEA}-[dD][Phe(4-CH2SO3H)][Nle]GW[Nle][dNMeD][NMeF]-NH2), in assay [3] (1321-N1 cells stably expressing CCK-2R, IP1 accumulation, highest dose tested 1×10^6 pM, read-out: EC50 (CCK-2R)), the EC50 was greater than 1000 nM. Also, the IC50 is 0.072 nM in assay [1] (setting [4]) and greater than 10000 nM in assay [2] (setting [5]).

On to `CCCC[C@H](NC(=O)[C@H](Cc1c[nH]c2ccccc12)NC(=O)CNC(=O)[C@H](CC(C)C)NC(=O)[C@H](Cc1ccc(OS(=O)(=O)O)cc1)NC(=O)[C@H](CC(=O)O)NC(=O)COCCOCCNC(=O)COCCOCCNC(=O)CC[C@H](NC(=O)CC[C@H](NC(=O)CCCCCCCCCCCCCCCCC(=O)O)C(=O)O)C(=O)O)C(=O)N(C)[C@H](CC(=O)O)C(=O)N(C)[C@@H](Cc1ccccc1)C(N)=O` [Example 28, 2-[2-[2-[[2-[2-[2-[[(4S)-4-Carboxy-4-[[(4S)-4-carboxy-4-(17-carboxyheptadecanoylamino)butanoyl]amino]butanoyl]amino]ethoxy]ethoxy]acetyl]amino]ethoxy]ethoxy]acetyl-Asp-sTyr-Leu-Gly-Trp-Nle-DMeAsp-MePhe-amide], for which the IC50 in assay [1] (setting [4]) came to 0.1 nM.

As for `CCCC[C@H](NC(=O)[C@H](Cc1c[nH]c2ccccc12)NC(=O)CNC(=O)[C@H](CC(C)C)NC(=O)[C@H](Cc1ccc(OS(=O)(=O)O)cc1)NC(=O)[C@H](CC(=O)O)NC(=O)COCCOCCNC(=O)COCCOCCNC(=O)CC[C@H](NC(=O)CCCCCCCCCCCCCCCCC(=O)O)C(=O)O)C(=O)N(C)[C@H](CC(=O)O)C(=O)N[C@@H](Cc1ccc2ccccc2c1)C(N)=O` [Example 50, 2-[2-[2-[[2-[2-[2-[[(4S)-4-Carboxy-4-(17-carboxyheptadecanoylamino)butanoyl]amino]ethoxy]ethoxy]acetyl]amino]ethoxy]ethoxy]acetyl-Asp-sTyr-Leu-Gly-Trp-Nle-DMeAsp-2Nal-amide] ({C18 diacid-γGlu-AEEA-AEEA}-D[sY]LGW[Nle][dNMeD][2Nal]-NH2), in assay [1] (setting [4]), the IC50 was found to be 0.14 nM.

As for `CCCC[C@H](NC(=O)[C@H](Cc1c[nH]c2ccccc12)NC(=O)CNC(=O)[C@H](CC(C)C)NC(=O)[C@H](Cc1ccc(OS(=O)(=O)O)cc1)NC(=O)[C@H](CCC(=O)O)NC(=O)COCCOCCNC(=O)COCCOCCNC(=O)CC[C@H](NC(=O)CCCCCCCCCCCCCCCCC(=O)O)C(=O)O)C(=O)N(C)[C@H](CC(=O)O)C(=O)N[C@@H](Cc1ccccc1)C(N)=O` [Example 52, 2-[2-[2-[[2-[2-[2-[[(4S)-4-Carboxy-4-(17-carboxyheptadecanoylamino)butanoyl]amino]ethoxy]ethoxy]acetyl]amino]ethoxy]ethoxy]acetyl-Glu-sTyr-Leu-Gly-Trp-Nle-DMeAsp-Phe-amide] ({C18 diacid-γGlu-AEEA-AEEA}-E[sY]LGW[Nle][dNMeD]F-NH2), the IC50 came out at 0.049 nM in assay [1] (setting [4]) and 480 nM in assay [2] (setting [5]).
